# Experiments:
# Assay in all cases: MIC serial dilution assay
# Assay type in all cases: cell-based
# [1] = tested on: Pichia anomala; conditions: Hansenula anomala; Pichia anomala DSM6766; overnight, 30 °C; reference nystatin 1 mg/mL; read-out: Minimum Inhibitory Concentration (MIC)
# Experimental: (§1) Compounds 1, 2, 4 and 5 were dissolved in MeOH (1 mg/mL) for the antimicrobial activity assay, while compound 3 was dissolved in MeOH: DMSO 9+1 (1 mg/mL). The solvents were also used as negative controls.
# (§2) Minimum inhibitory concentrations (MIC) were determined in a serial dilution assay, as described previously; a detailed protocol can be found in the Supporting Information. The compounds (1 mg/mL) were diluted to a range of 66.7 to 0.52 µg/mL and incubated with the test organisms overnight. Inhibition of growth was visually evaluated the next day: the MIC is defined as the lowest concentration of the test compound where no growth of the test organism was observed. Various test organisms of fungal and bacterial origin were tested to cover a broad range of microorganisms. This selection is also being used as a standard test panel in our attempts to discover new anti-infectives, as it represents a broad spectrum of pathogens of clinical interest, as well as sensitive indicator strains (bacteria: Bacillus subtilis, Staphylococcus aureus, Micrococcus luteus, Chromobacterium violaceum, Escherichia coli and Pseudomonas aeruginosa; mycobacteria: Mycolicibacterium smegmatis and fungi: Candida albicans, Schizosaccharomyces pombe, Mucor hiemalis, Pichia anomala and Rhodotorula glutinis).
# (§3) Protocol: Antimicrobial Activi ty Assay
# (§4) The assay was conducted as a minimum inhi bitory concentration (MIC) assay in 96-well ro und-bottom mi crotiter pl ate s usi ng the p ar ameter s su mm ari zed i n T a bl e S 1 and as already described i n [S1].
# (§5) Stocks of the test organi sms were generated by growing the organisms o ver ni ght i n 50 mL shaki ng fl asks fi ll ed wi th 25 mL of the growth medi um at 140 rpm (for media and temperatures see Table S1). If the organisms were well grown the ne xt day, which was checked by occurrence of an optical density (OD)>30 of the suspension (OD600 nm for bacteria, OD548 nm for fungi and M. smegma tis) , aliquots of these were stored i n 1.5 mL reaction tube s in a freezer at −80 °C for up to 12 mo nths . Upon use, aliquots were unth awed and the OD of the suspension measured and adjusted by diluting with the respective growth medi um. OD600 nm w as adj usted to 0.01 and OD548 nm to 0.1.
# (§6) Subse que ntly, 150 µL o f the adjusted suspensions were added to all wells of a 96-wel l microtiter pl ate (one test organi sm per plate). In row A, additional 130 µL of suspensions plus 20 µL of the test compounds (1 mg/mL) and the controls (one compound/column) were added. MeOH as well as MeOH:DMSO 9+1 were used as negative controls, while different positive controls (refer ences) were used for the test organisms (see Tabl e S1). Then, starti ng from row A, 150 µ L of the suspension were transferred to the next row, the contents thoroughly mixed, and 150 µ L transferred to the following row.
# (§7) The remaining 150 µ L after row H were discarded. […]
# (§8) compounds, ranging from 66.7 µg/mL i n row A to 0.52 µg/mL i n row H.
# (§9) The microtiter plates were then incubated overnight o n a microplate shaker at 800 rpm at 30 or 37 °C (see Table S1) and were visually evaluated the next day. The MIC is defined as the lowest concentration were no growth of the test organism was o bserved. A lower MIC thus corresponds to a higher antimicrobial activity of the test compound.
# (§10) Table S1: MIC assay ex per i men t parameters test organism strain No. growth incubation positive control (reference) […]
# Pichia anomala DSM6766 MYC 3 30 nyst ati n 1.0 mg/mL
# (§11) Rhodotorula glutinis DSM10134 MYC 3 30 nyst ati n 1.0 mg/mL
# (§12) 1 MHB: Müller-Hinton Broth (SN X927.1, Ca r l Roth GmbH, Karlsruhe, Germany) 2 7H9+ADC: Middlebrook 7H9 Broth Base + Middlebrook ADC Growth Supplement (SN M0678+M0553, Merck, Darmstadt, Germany)
# (§13) 3 MYC: 1 % w/v, bacto peptone, 1% w/v yeast extract, 2 % w /v glycerol, pH 6.3 [S1] Helaly, S.E.; Ashrafi, S.; Teponno, R.B.; Bernecker, S.; Dababat, A.A.; Maier, W.; Stadler, M.
# (§14) Nematicidal Cyclic Lipodepsipeptides and a Xanthocillin Derivative from a Phaeosphariaceous […]
# [2] = tested on: Bacillus subtilis; conditions: Bacillus subtilis DSM10; overnight, 30 °C; reference oxytetracycline 1 mg/mL; read-out: Minimum Inhibitory Concentration (MIC)
# Experimental: as §1, §2, §3, §4, §5, §6, §7, §8, §9, §10
# Bacillus subtilis DSM10 MHB 1 30 oxytetr acyclin 1.0 mg/mL […]
# as §11, §12, §13, §14
# [3] = tested on: Chromobacterium violaceum; conditions: Chromobacterium violaceum DSM30191; overnight, 30 °C; reference oxytetracycline 0.1 mg/mL; read-out: Minimum Inhibitory Concentration (MIC)
# Experimental: as §1, §2, §3, §4, §5, §6, §7, §8, §9, §10
# Chromobacterium DSM30191 MHB 1 30 oxytetr acyclin 0.1 mg/mL […]
# as §11, §12, §13, §14
# [4] = tested on: Micrococcus luteus; conditions: overnight, 30 °C, reference oxytetracycline 0.1 mg/mL; for MIC: Micrococcus luteus, DSM1790, Micrococcus luteus DSM1790, read-out: Minimum Inhibitory Concentration (MIC)
# Experimental: as §1, §2, §3, §4, §5, §6, §7, §8, §9, §10
# Micrococcus luteu s DSM1790 MHB 1 30 oxytetr acyclin 0.1 mg/mL […]
# as §11, §12, §13, §14
SMILES,MIC [1],MIC [2],MIC [3],MIC [4],Minimum Inhibitory Concentration (MIC) ([4]; Micrococcus luteus DSM1790)
"Oc1cccc2c3c(ccc12)-c1ccc(O)c2c(O)ccc-3c12 [Compound 1, viridistratin A]",66.7 µg/mL,33.3 µg/mL,66.7 µg/mL,16.7 µg/mL,
"O=C1C[C@H]2C(=C3CCC(=O)c4c(O)ccc2c43)c2cccc(O)c21 [Compound 4, truncatone A]",> 66.7 µg/mL,> 66.7 µg/mL,> 66.7 µg/mL,16.7 µg/mL,33.3 µg/mL
"O=C1CCC(=O)c2c1c(O)cc1c2-c2ccc(O)c3c(O)ccc-1c23 [Compound 5, truncatone C]",> 66.7 µg/mL,66.7 µg/mL,> 66.7 µg/mL,16.7 µg/mL,

# Now from value to compound, other results behind:
MIC [1],MIC [2],MIC [3],MIC [4],SMILES,Minimum Inhibitory Concentration (MIC) ([4]; Micrococcus luteus DSM1790)
33.3 µg/mL,16.7 µg/mL,66.7 µg/mL,8.3 µg/mL,"COc1cccc2c3c(ccc12)-c1ccc(O)c2c(O)ccc-3c12 [Compound 2, viridistratin B]",
> 66.7 µg/mL,> 66.7 µg/mL,> 66.7 µg/mL,,"COc1cccc2c3c(ccc12)-c1ccc(O)c2c(OC)ccc-3c12 [Compound 3, viridistratin C]",
